The numbers were not newly measured in US7335651B2, “Compositions incorporating(-)-hydroxycitric acid and related methods for promoting fat oxidation” (Interhealth Nutraceuticals Incorporated, priority 2001, dated 2008), which cites them from elsewhere.

Where two headings read alike, the source gives them in different places.

Series [1] concerns growing rats. The conditions noted are these: thirty days.
The test system of series [2] is liver lipogenesis. As to conditions: rats; acute oral dose 2.63 mmoles/kg (roughly 594 mg/kg) before a standardized synthetic meal; up to 8 hours after the meal.
Series [3] deals with T1, ATP-citrate lyase (Homo sapiens, UniProt P53396).
T1 sequence (P53396 1-1101): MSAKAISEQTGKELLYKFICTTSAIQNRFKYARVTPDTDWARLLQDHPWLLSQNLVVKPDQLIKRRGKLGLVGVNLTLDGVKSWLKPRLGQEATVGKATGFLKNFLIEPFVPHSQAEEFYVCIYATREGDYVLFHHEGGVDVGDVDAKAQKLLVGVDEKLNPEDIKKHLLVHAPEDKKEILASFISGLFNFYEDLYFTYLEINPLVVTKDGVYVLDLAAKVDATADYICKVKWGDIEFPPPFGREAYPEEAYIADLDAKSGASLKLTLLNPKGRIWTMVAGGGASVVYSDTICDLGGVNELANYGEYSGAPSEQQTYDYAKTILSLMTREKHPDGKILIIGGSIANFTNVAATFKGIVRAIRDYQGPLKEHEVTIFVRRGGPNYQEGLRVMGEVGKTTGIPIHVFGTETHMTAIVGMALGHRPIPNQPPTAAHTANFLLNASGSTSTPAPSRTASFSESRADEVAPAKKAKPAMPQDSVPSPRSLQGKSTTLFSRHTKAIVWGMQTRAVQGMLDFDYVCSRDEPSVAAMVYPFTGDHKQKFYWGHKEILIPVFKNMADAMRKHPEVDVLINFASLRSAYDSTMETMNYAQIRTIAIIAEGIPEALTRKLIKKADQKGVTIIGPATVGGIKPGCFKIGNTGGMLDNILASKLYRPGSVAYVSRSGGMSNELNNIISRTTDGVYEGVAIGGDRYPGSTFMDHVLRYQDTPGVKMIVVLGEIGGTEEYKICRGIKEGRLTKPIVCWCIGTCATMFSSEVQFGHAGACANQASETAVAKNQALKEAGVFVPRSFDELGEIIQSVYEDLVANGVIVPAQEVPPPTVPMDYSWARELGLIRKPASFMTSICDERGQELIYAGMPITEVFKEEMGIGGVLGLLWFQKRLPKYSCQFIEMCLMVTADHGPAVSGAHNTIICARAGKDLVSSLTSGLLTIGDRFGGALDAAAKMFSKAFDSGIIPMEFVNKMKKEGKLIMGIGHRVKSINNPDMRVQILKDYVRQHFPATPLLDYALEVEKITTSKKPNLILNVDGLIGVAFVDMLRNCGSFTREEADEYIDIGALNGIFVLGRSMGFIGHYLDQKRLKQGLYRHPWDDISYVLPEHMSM

For series [4] the following is noted: acute toxicity tests.
Series [5] concerns DNA.
For series [6], the system named is young obese women. The conditions noted are these: eight weeks.

In the case of `O=C(O)CC(O)(C(=O)O)C(O)C(=O)O` (single isomer, unassigned; (-)) [HCA, (−)-hydroxycitric acid], the “Decrease in body weight gain” value in series [1] (0.33 mmoles/kg twice daily) is on record as “significant”; in series [1] (2.63 mmoles/kg once daily) it was “significant”; in series [1] (single daily administration), “no significant reductions”. Moreover, the “Decrease in liver lipogenesis” value in series [2] is “roughly 70%”. Moreover, the “Mode of inhibition of ATP-citrate lyase” value in series [3] is “competitive inhibitor”. The “Acute toxicity compared with citric acid” value in series [4] is reported as “even safer than citric acid”.
On to chromium picolinate, for which the “DNA damage and mutagenicity” value in series [5] is “damage DNA and be mutagenic”. In series [6] (in combination with exercise, O-NBC at 400 micrograms chromium per day), the “Body weight change with exercise” value is recorded as “no change in weight”. Further, the “Body weight change without exercise” value in series [6] (no exercise) was “significant weight gain”.
